For this experiment, the system named is autoproduction of cortisol. As to the kind of experiment: dexamethasone inhibition test: serum cortisol the morning after low oral doses of dexamethasone.
The mark [1] stands for this setting: 'dangerously' belly fat individuals.

Where “and” joins values, the source holds several entries; their conditions need not be identical. Identical values can stand only once.

Consider one compound from patent US7217505B2, “Method for determining whether condition is symptom of metabolic syndrome” (Cortendo AB, priority 1998, dated 2007).

Turning to `C[C@@H]1C[C@H]2[C@@H]3CCC4=CC(=O)C=C[C@]4(C)[C@@]3(F)[C@@H](O)C[C@]2(C)[C@@]1(O)C(=O)CO` [dexamethasone], under setting [1], the “dose from which inhibition could be measured” value is on record as 0.25 mg and the “dose of maximum inhibition” value lay in the range of 0.5 to 1 mg. Also, for the setting “about 20 individuals, most distinct difference at 0.5 mg”, the “critical doses with significant differences between belly fat and other individuals” value was 0.125 mg and 0.5 mg. For the same compound, the “dose at which inhibition of the autoproduction of cortisol was already obtained” value (normal weight individuals and those with general overweight but without belly fatness) was 0.05 mg. Besides, for the setting “normal weight individuals and those with general overweight but without belly fatness (for a few also at 0.5 mg)”, the “dose of maximum inhibition of the autoproduction of cortisol” value amounted to 1 mg.
